Consider 3 compounds from patent publication US8901126B2, “Substituted imidazo[1,5-A]quinoxalin-4-ones are useful for preventing or treating storage dysfunction, voiding dysfunction and bladder/urethral diseases” (priority 2010, dated 2014).

SMILES strings stand for the structures. Counter-ions that a name gives are not always drawn.

Series [1] deals with T1, PDE9 (Homo sapiens, UniProt O76083).
T1 construct: made in house
Put plainly: PDE9-inhibiting activity (SPA, 3H-cGMP degradation). It is filed as biochemical. The note with it: PDE9-inhibiting activity (IC50 values), cGMP 1 μM, 30° C. The protocol:
The PDE9 used in the present experiment was expressed/purified by the method as in, for example, Guipponi et al., and Fisher et., al. (Fisher, D. A., et al., J. Biol. Chem., 273: pp. 15559-15564 (1998), Guipponi, M., et al., Hum. Genet., 103: pp. 386-392 (1998)).
(2) Evaluation of PDE9-Inhibiting Activity
The PDE9-inhibiting activity was measured by the following method. That is, to a buffer solution containing tris(hydroxymethyl)aminomethane-hydrochloric acid (40 mM, pH 8.0), magnesium chloride (5 mM), and 2-mercaptoethanol (4 mM) were added cGMP (1 μM) and ^3H-cGMP (0.33 μCi/ml) to give a substrate buffer solution. A test substance solution and an enzyme solution which had been adjusted to an optimal concentration were added thereto to perform a reaction at 30° C. The enzyme reaction was stopped by the addition of Scintillation Proximity Assay (SPA) Beads (Perkin Elmer, USA) containing 5 mM 3-isobutyl-1-methylxanthine (IBMX). For the enzyme activity, the amount of 5′-GMP, which is a reaction degradation product bound to SPA beads, was measured with a TopCount microplate reader (Hewlett Packard, USA).
The inhibitory rate was calculated by taking the radioactivity of the control containing no test substance as (A), taking the radioactivity of the blank containing no enzyme as (B), and taking the radioactivity of the test substance as (C), and using the following equation. Inhibitory rate=100−{(C)−(B)/(A)−(B)}×100(%)

In series [2] the test system is urethra relaxation response. Put plainly: Simultaneous measurement model for rat bladder contraction/urethra relaxation responses. It counts as in vivo. Conditions: female SD rat, urethane anesthesia, 1 mg/kg, intravenously or intraduodenally. The source says: That is, a female Sprague-Dawley (SD) rat (Charles River Laboratories Japan, Inc.) was anesthetized with urethane, and the bladder was exposed by a midline incision in the lower abdomen. A double lumen cannula (a cannula having a dual structure by PE190 and PE50) from the bladder apex was inserted into the bladder, and the bladder apex and the cannula were fixed by sutures at a point where the tip reached the proximal urethra. While infusing physiological saline into the urethra through the outer cannula, the urethral inner pressure was measured by a pressure transducer through the inner cannula with a saline solution infused into the urethra through the outer cannula. On the other hand, a single cannula (PE50) was inserted into the bladder from the bladder apex and placed therein. The inner pressure of the bladder was measured through this cannula. After a postoperative stabilization period had passed, physiological saline was infused into the bladder through the cannula of the bladder apex to cause a bladder contraction reaction, and thus cause a urethra relaxation response accompanying the bladder contraction reflex. The test substance was administered intravenously or intraduodenally.

T1 sequence (O76083 whole entry): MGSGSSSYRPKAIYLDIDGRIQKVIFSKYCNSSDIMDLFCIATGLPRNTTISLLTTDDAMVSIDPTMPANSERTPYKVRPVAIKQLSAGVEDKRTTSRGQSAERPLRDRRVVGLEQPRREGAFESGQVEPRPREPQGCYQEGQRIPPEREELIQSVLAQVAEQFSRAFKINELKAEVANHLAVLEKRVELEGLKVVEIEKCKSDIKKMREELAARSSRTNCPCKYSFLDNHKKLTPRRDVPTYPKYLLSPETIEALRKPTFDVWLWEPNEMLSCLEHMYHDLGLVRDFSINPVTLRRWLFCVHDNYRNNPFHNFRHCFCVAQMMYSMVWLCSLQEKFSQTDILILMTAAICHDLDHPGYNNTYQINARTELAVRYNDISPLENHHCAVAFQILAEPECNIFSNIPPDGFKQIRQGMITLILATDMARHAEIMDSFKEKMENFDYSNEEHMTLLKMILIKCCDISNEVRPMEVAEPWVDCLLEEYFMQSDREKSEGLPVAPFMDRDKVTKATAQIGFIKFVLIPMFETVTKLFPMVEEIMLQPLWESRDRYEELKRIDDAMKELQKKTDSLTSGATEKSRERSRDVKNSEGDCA

As usually defined, the IC50 is the concentration at which inhibition is half-maximal. Low values mean higher potency, high ones lower potency. As for `COCc1cc2c(cc1C(=O)N1Cc3c(F)ccc(F)c3C1)[nH]c(=O)c1cnc(C3CCOC3)n12.Cl` (single isomer, unassigned) [Example 45(b)], in series [1], the IC50 was 8.9 nM. For the same compound, the “ratio with increased urethra relaxation time during voiding (increase relative to the solvent administration group (vs vehicle))” value in series [2] was 141%.

As to `COCc1cc2c(cc1C(=O)N1CCc3cc(OC)ncc31)[nH]c(=O)c1cnc(C3CCOC3)n12` (single isomer, unassigned; (+)) [Example 4(b), (+)-7-[(5-methoxy-2,3-dihydro-1H-pyrrolo[2,3-c]pyridin-1-yl)carbonyl]-8-(methoxymethyl)-1-(tetrahydrofuran-3-yl)imidazo[1,5-a]quinoxalin-4(5H)-one dihydrochloride], the IC50 in series [1] stood at 11 nM. Further, the “ratio with increased urethra relaxation time during voiding (increase relative to the solvent administration group (vs vehicle))” value in series [2] is 167%.

In general, melting point refers to the temperature of the solid-liquid transition. The compound `Cc1cc2c(cc1C(=O)N1CC(C)c3cc(Cl)ccc31)[nH]c(=O)c1cnc(C3CCOCC3)n12.Cl` (stereo not shown) [Example 31] returned a melting point of 221 to 224 °C. This compound gave an IC50 in series [1] of 1.4 nM. The “ratio with increased urethra relaxation time during voiding (increase relative to the solvent administration group (vs vehicle))” value in series [2] was found to be 149%.
